{"source": "patent US7439223B2", "about": "“Nucleophosmin/B23-binding peptide to inhibit tumor growth and regulate transcriptional activity of p53” (Chang Gung University, priority 2005, dated 2008)", "key": {"[1]": {"test_system": "U1 bladder cancer cells", "test": "U1 bladder cancer cell viability", "format": "cell-based", "details": "24 hr, alone, read-out: concentration required to produce a 50% decrease in cell viability", "protocol": "(§1) Regarding the cells and antibodies, MGH-U1 was established from a Grade III bladder transitional cell carcinoma. U1 and Ras-3T3 cells were grown in RPMI 1640 medium supplemented with 10% fetal bovine serum and 1% antibiotics in 5% CO2 humidified incubator at 37° C. The number of viable cells was determined by trypan blue exclusion and counted with a hemocytometer. Antinucleophosmin/B23 mAb, Anti-p53 polyclonal antibody (pAb) and anti-GAPDH were provided.\nU1 (3×10^5) cells were treated with doxorubicin (DOX, 0.032-1.0 μg/ml). […] After 24 hr of exposure, cells were counted and survival was expressed as the percentage of surviving cells relative to the untreated cells. […] The relative tumor volumes were expressed as percentages of the initial volumes at first day of treatments. *p<0.05, as compared with control mice. […]\n(§2) FIGS. 3A-3F illustrate Nucleophosmin/B23 regulates the increase in protein expression of p53. […] Total cell lysates were analyzed by western immunoblotting using antibodies specific for p53 and GAPDH. […] Total cell lysates were analyzed by Western immunoblotting using antibodies specific for nucleophosmin/B23, p53 and GAPDH. […] After 3 hours, cells were harvested and were analyzed by Western immunoblotting using antibodies specific for p53 and GAPDH. […] The cell extracts containing equal amounts of proteins were analyzed for CAT activity and luciferase activities. […]"}, "[2]": {"test_system": "Ras-3T3 cells", "test": "tumor growth in nude mice, DOX, Rev or DOX+Rev subcutaneously adjacent to the tumors", "format": "in vivo", "details": "20 μg/20 g body weight subcutaneously adjacent to the tumors daily for 5 days", "protocol": "Doxorubicin (DOX), an anthracycline anti-tumor antibiotic, is active against a number of human cancers.\nU1 (3×10^5) cells were treated with doxorubicin (DOX, 0.032-1.0 μg/ml). […] After 24 hr of exposure, cells were counted and survival was expressed as the percentage of surviving cells relative to the untreated cells. Data represent means ±standard deviations; n=3. In FIG. 2D, each mouse was inoculated with 3×10^5 Ras-3T3 cells (one site/mouse). […] Tumor volumes of DOX (20 μg/20 g body weight), Rev (1 mg/20 g body weight), DOX (10 μg/20 g body weight)+Rev (0.5 mg/20 g body weight) and PBS-treated (control) mice were plotted (n=5). The relative tumor volumes were expressed as percentages of the initial volumes at first day of treatments. *p<0.05, as compared with control mice. A Student's t-test was used for statistical analysis. Results shown are representative of three independent experiments."}, "[3]": {"test_system": "nucleophosmin/B23 over-expressed cells", "test": "cytotoxic effect on nucleophosmin/B23 over-expressed cells"}, "[4]": {"test_system": "Ras-3T3 cells", "test": "cytotoxic effect of peptides on Ras-3T3 cell viability", "format": "cell-based", "details": "for effect on cellular viability: 25 to 400 μM", "protocol": "as §1\nRev-NLS (Rev), T-NLS and np-NLS peptides were synthesized. The primary sequences of the peptides and the dissociation constants of their interactions with nucleophosmin/B23 are shown in FIG. 4. Rev, T-NLS, and np-NLS peptides were applied to Ras-3T3 cells in parallel experiments at concentrations ranging from 25 to 400 μM.\nIn summary a review of the Figures is given. FIGS. 1A-1D, illustrate Nucleophosmin/B23-binding peptide inhibits tumor growth of Ras-3T3 cells and tumors in nude mice. […] After 24 hours of exposure, cells were counted and survival was expressed as the percentage of surviving cells relative to the untreated cells. Data represent means ±standard deviations; n=3. […] The colonies were stained and scored 12 days after seeding and the efficiencies were calculated as the percentage relative to the untreated cells. Values were expressed as the means ± standard deviations for three determinations. […] Mean tumor volume ±standard deviation for each treatment group was plotted (n=5). Statistical differences in tumor volumes were determined by Student's t-test. […] Tumor volumes of Rev- and PBS-treated (control) mice were plotted (n=5). A Student's t-test was used for statistical analysis. Results shown are representative of three independent experiments."}, "[5]": {"test_system": "tumors induced by Ras-3T3 cells", "test": "nude mouse xenograft assay, intraperitoneal treatment", "format": "in vivo, nude mice", "details": "10 mg/20 g body weight intraperitoneally once daily for 14 days, vs PBS", "protocol": "Exponentially growing Ras-3T3 cells were harvested, washed and resuspended in PBS at 3×10^6 cells/ml. Tumor xenografts were established by inoculating one hundred microliters (100 μl) of the cell suspension subcutaneously into the right flanks of the nude mice. To assay the antitumor activity of Rev, T-NLS, and np-NLS peptides, they were administered to tumors as a systemic intraperitoneal or as a local subcutaneous treatment. For intraperitoneal treatment, mice were randomized into 4 groups of 5 animals after grafting.\nAnimals were treated once daily for 14 days beginning 48 hr after the inoculation of Ras-3T3 cells. […] Three-dimensional measurements were taken with electric caliper and the tumor volumes were calculated using the formula, V=4πxyz/3, where 2x, 2y and 2z were the three perpendicular diameters of the tumor. […] Statistical differences in the tumor volumes were analyzed by the student's t-test. […]\nNext, a nude mouse xenograft assay was used to evaluate the antitumor effect of peptides on the growth of tumors induced by Ras-3T3 cells. […] During the course of treatment, tumor growth was monitored daily by caliper measurement.\nIn summary a review of the Figures is given. […] After 24 hours of exposure, cells were counted and survival was expressed as the percentage of surviving cells relative to the untreated cells. […]"}, "[6]": {"test_system": "p53", "test": "p53 expression level by western blotting in U1 cells", "format": "cell-based", "details": "25-150 μM for 3 hours or 50 μM for 0.2-7 hours", "protocol": "p53 protein is known to suppress tumor formation in vivo at least in part through its ability to induce cell death. The susceptibility of tumor cells to induction of cell death by cytotoxic drugs is modulated by p53 in many cases. It is then important for us to test whether the anti-tumor activity of nucleophosmin/B23-binding peptide is mediated through a p53 dependent regulation. […] The expression levels of p53 were measured by western blotting. […] In parallel, we transfected cells with a plasmid containing the luciferase reporter gene under the control of an artificial p53 target promoter (pGL13). […] Moreover, we analyzed whether the level of p53 changes upon siRNA mediated reduction of the intracellular amount of nucleophosmin/B23. […]\nas §2"}, "[7]": {"test_system": "p53", "test": "p53-dependent luciferase reporter (pGL13) in U1 cells", "format": "cell-based", "details": "50-150 μM for 3 hours", "source_text": "pp53-TA-Luc contains a p53 response element, located upstream of the minimal TA promoter, the TATA box from the herpes simplex virus thymidine kinase promoter (PTA). Located downstream of PTA is the firefly luciferase reporter gene. Double stranded siRNA oligonucleotides against B23, siB23-297 (sense: 5′-[…]; and antisense: […]), and siB23-191 (sense 5′-[…] and antisense: […]) were synthesized. Two oligonucleotides were annealed and cloned into pSilencer™ siRNA expression vector by EcoR1 and Apa1.\nTransfections were performed using Lipofectamine™ Reagent method. Before transfection, cells (2×10^5 per well) were seeded in 6-well plates overnight. […]\np53 protein is known to suppress tumor formation in vivo at least in part through its ability to induce cell death. […] The expression levels of p53 were measured by western blotting. […] Moreover, we analyzed whether the level of p53 changes upon siRNA mediated reduction of the intracellular amount of nucleophosmin/B23. […]\nFIGS. 3A-3F illustrate Nucleophosmin/B23 regulates the increase in protein expression of p53. […] Total cell lysates were analyzed by western immunoblotting using antibodies specific for p53 and GAPDH. […] Total cell lysates were analyzed by Western immunoblotting using antibodies specific for nucleophosmin/B23, p53 and GAPDH. […] The cell extracts containing equal amounts of proteins were analyzed for CAT activity and luciferase activities. […]"}, "[8]": {"test_system": "nucleophosmin/B23", "details": "cited from earlier work"}}, "note": "Ends that are not written are not given here."}
{"molecule": "COc1cccc2c1C(=O)c1c(O)c3c(c(O)c1C2=O)C[C@@](O)(C(=O)CO)C[C@@H]3O[C@H]1C[C@H](N)[C@H](O)[C@H](C)O1", "note": "[DOX, Doxorubicin]", "values": [{"measurement": "IC50", "setting": "[1]", "value": 0.08, "unit": "µg/mL"}, {"measurement": "tumor growth versus PBS control", "setting": "[2]", "value": "grew more slowly"}]}
{"molecule": "ARRNRRRRWREYC-NH2 [Rev peptide]", "values": [{"measurement": "dose needed to exert similar cytotoxic effect", "setting": "[3]", "value": "higher doses"}]}
{"molecule": "KRPAATKKAGQAKKKKYC (listed as Homo sapiens) [np-NLS]", "values": [{"measurement": "effect on cellular viability", "setting": "[4]", "value": "little or virtually no effect"}, {"measurement": "activity against cells", "setting": "[4]; at 1 mM (data not shown)", "value": "no activity"}, {"measurement": "inhibition of tumor growth", "setting": "[5]", "value": "No inhibition of tumor growth"}, {"measurement": "intracellular amount of p53 (protein expression)", "setting": "[6]", "value": "No such increases"}, {"measurement": "increase in p53-dependent transcription from the pGL13 promoter", "setting": "[7]", "value": "No such increases"}, {"measurement": "binding affinity toward nucleophosmin/B23", "setting": "[8]; in words", "value": "no binding affinity"}]}
{"molecule": "PKKKRKVEDPYC [T-NLS, PKKKRKVE DPYC]", "values": [{"measurement": "effect on cellular viability", "setting": "[4]", "value": "little or virtually no effect"}, {"measurement": "IC50", "setting": "[4]; read-out: concentration at which there was a 50% decrease in cell viability", "value": "~1000", "unit": "µM"}, {"measurement": "inhibition of tumor growth", "setting": "[5]", "value": 63.6, "unit": "%"}, {"measurement": "Kd", "setting": "[8]; read-out: kd of interaction with nucleophosmin/B23", "value": 0.824, "unit": "µM"}]}
